# Source: paper PMC10176470, “Engaging a Non-catalytic Cysteine Residue Drives Potent and Selective Inhibition of Caspase-6” (Journal of the American Chemical Society, 2023)
# Experiments:
# Format in all cases: cell-based
# [1] = target: proteins of HEK293T cells transiently overexpressing caspase-6 (Homo sapiens, UniProt Q96F25); conditions: Probe; protein ALG14 Q96F25
# [2] = target: proteins of HEK293T cells transiently overexpressing caspase-6 (Homo sapiens, UniProt P25705); conditions: exp_ref Probe; protein ATP5A1 (P25705); analysis C6
# Sequence of proteins of HEK293T cells transiently overexpressing caspase-6 (Homo sapiens, UniProt P25705) (P25705 44-553): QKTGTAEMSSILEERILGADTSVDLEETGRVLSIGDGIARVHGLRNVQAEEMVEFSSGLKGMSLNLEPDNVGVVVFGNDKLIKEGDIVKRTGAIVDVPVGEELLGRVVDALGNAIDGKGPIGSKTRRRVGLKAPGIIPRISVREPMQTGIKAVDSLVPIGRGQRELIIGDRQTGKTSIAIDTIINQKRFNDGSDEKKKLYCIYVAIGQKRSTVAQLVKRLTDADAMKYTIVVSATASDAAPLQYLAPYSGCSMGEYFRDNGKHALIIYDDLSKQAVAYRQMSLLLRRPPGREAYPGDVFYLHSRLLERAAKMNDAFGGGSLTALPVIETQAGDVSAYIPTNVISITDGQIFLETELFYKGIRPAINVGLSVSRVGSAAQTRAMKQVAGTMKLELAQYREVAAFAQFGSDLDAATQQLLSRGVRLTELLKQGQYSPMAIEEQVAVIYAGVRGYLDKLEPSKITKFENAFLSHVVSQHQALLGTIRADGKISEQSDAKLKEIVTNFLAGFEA
# [3] = target: proteins of HEK293T cells transiently overexpressing caspase-6 (Homo sapiens, UniProt P08670)
# Sequence of proteins of HEK293T cells transiently overexpressing caspase-6 (Homo sapiens, UniProt P08670) (P08670 whole entry): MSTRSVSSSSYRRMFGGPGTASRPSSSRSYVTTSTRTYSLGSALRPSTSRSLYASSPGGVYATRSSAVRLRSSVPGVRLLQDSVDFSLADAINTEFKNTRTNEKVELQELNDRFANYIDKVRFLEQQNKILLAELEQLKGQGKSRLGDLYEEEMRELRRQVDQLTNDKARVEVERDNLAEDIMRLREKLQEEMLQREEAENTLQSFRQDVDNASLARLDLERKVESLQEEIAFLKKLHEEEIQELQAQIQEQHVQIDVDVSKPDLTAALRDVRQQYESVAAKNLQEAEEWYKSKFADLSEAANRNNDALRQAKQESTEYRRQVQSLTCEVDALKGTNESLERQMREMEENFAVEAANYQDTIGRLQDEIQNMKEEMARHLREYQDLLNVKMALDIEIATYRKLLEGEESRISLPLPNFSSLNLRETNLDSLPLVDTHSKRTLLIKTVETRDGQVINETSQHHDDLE
# [4] = target: proteins of HEK293T cells transiently overexpressing caspase-6 (Homo sapiens, UniProt Q9UBE0); conditions: protein SAE1 (Q9UBE0); exp_ref Probe; analysis C6
# Sequence of proteins of HEK293T cells transiently overexpressing caspase-6 (Homo sapiens, UniProt Q9UBE0) (Q9UBE0 whole entry): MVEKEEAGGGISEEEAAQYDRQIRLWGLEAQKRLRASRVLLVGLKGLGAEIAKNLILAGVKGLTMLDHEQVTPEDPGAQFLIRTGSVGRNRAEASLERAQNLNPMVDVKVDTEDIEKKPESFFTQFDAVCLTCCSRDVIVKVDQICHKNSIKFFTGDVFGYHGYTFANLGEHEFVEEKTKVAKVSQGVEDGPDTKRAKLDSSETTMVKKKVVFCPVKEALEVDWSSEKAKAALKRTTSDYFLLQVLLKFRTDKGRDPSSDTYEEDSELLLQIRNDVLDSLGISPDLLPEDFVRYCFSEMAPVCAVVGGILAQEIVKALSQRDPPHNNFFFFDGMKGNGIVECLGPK
# [5] = target: T1, proteins of HEK293T cells transiently overexpressing caspase-6 (Homo sapiens, UniProt P11498)
# T1 sequence (P11498 21-1178): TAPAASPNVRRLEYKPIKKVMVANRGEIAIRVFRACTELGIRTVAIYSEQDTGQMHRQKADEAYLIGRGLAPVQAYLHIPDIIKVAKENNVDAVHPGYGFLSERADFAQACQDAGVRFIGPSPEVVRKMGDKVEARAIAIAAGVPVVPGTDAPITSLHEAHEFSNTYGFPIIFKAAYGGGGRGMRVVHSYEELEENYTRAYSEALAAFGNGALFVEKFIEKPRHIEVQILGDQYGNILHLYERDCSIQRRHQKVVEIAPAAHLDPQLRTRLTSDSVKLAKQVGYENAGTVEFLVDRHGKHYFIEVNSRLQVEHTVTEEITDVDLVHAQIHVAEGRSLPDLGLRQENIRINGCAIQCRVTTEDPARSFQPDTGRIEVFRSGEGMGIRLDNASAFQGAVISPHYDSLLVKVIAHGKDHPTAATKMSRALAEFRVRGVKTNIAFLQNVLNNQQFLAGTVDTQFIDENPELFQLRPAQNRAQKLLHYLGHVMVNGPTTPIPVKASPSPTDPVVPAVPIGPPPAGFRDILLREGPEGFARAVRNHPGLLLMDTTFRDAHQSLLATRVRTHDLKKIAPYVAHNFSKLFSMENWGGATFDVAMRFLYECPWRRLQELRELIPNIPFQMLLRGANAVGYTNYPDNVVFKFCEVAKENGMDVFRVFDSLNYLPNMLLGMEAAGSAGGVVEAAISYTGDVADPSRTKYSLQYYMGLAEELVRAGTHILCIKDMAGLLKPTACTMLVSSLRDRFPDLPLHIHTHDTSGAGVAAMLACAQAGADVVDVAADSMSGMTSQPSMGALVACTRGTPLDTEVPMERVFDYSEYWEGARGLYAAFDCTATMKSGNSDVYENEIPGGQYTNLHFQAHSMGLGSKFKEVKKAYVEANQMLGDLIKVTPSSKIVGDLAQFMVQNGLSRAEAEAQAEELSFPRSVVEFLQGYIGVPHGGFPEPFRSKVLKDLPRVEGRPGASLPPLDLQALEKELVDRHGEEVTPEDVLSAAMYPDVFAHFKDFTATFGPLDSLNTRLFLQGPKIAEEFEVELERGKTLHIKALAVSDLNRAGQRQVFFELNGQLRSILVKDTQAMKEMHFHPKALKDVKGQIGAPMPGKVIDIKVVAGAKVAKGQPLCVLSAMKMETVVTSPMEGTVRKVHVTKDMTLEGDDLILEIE
# [6] = target: proteins of HEK293T cells transiently overexpressing caspase-6 (Homo sapiens, UniProt Q6P2Q9); conditions: exp_ref Probe; protein PRPF8 (Q6P2Q9); analysis C6
# [7] = target: proteins of HEK293T cells transiently overexpressing caspase-6 (Homo sapiens, UniProt P60842); conditions: exp_ref Probe; protein EIF4A1 (P60842); analysis C6
# Sequence of proteins of HEK293T cells transiently overexpressing caspase-6 (Homo sapiens, UniProt P60842) (P60842 whole entry): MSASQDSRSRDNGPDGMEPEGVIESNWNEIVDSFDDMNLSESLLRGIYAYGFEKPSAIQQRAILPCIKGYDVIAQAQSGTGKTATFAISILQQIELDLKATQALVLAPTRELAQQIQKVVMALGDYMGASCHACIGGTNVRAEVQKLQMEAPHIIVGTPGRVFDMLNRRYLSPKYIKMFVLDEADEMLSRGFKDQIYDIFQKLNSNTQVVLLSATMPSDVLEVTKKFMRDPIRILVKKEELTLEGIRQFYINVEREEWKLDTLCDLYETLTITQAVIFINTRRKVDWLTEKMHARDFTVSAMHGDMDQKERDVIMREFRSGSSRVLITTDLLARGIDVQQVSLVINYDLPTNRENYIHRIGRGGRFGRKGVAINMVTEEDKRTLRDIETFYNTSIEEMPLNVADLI
# [8] = target: proteins of HEK293T cells transiently overexpressing caspase-6 (Homo sapiens, UniProt Q15366); conditions: exp_ref Probe; protein PCBP2 (Q15366); analysis C6
# Sequence of proteins of HEK293T cells transiently overexpressing caspase-6 (Homo sapiens, UniProt Q15366) (Q15366 whole entry): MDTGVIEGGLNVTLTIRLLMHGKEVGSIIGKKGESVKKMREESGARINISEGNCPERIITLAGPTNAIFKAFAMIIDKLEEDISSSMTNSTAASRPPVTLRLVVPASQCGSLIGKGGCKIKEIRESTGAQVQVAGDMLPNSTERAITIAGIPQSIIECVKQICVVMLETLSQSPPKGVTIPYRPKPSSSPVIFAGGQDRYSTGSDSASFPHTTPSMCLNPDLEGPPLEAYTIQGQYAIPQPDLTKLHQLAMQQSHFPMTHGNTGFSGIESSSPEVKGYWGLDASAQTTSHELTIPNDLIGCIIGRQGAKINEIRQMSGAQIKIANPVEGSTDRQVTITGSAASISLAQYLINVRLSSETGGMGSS
# [9] = target: proteins of HEK293T cells transiently overexpressing caspase-6 (Homo sapiens, UniProt P26641); conditions: exp_ref Probe; protein EEF1G (P26641); analysis C6
# Sequence of proteins of HEK293T cells transiently overexpressing caspase-6 (Homo sapiens, UniProt P26641) (P26641 whole entry): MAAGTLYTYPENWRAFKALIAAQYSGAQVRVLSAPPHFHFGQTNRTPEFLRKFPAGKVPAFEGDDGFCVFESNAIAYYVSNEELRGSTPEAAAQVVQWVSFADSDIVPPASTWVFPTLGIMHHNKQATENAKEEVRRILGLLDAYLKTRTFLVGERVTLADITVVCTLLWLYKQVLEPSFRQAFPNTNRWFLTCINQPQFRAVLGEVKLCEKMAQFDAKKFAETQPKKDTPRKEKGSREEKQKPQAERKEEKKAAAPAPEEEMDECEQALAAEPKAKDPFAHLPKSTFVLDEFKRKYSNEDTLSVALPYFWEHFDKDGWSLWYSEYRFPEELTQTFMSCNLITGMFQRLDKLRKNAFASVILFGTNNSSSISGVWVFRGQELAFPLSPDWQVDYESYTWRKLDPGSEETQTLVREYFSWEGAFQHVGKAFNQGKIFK
# [10] = target: proteins of HEK293T cells transiently overexpressing caspase-6 (Homo sapiens, UniProt P18621); conditions: exp_ref Probe; protein RPL17 (P18621); analysis C6
# [11] = target: T2, proteins of HEK293T cells transiently overexpressing caspase-6 (Homo sapiens, UniProt Q99832); conditions: protein CCT7 (Q99832)
# T2 sequence (Q99832 1-543): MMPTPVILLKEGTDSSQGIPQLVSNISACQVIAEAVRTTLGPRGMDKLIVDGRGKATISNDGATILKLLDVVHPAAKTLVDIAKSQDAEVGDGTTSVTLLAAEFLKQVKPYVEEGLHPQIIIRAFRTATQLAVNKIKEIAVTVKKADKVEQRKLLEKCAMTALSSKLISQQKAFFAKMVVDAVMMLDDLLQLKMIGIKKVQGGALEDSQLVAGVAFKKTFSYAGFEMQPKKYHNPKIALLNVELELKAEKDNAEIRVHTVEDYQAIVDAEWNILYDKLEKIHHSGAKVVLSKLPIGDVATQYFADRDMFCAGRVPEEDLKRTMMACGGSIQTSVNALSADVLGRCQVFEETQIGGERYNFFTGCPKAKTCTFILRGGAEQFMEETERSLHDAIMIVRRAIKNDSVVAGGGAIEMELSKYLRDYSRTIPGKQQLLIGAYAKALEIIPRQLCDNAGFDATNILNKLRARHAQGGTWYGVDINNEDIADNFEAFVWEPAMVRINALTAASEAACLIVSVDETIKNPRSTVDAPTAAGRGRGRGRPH
# [12] = target: proteins of HEK293T cells transiently overexpressing caspase-6 (Homo sapiens, UniProt P21964); conditions: Probe; protein COMT P21964
# Sequence of proteins of HEK293T cells transiently overexpressing caspase-6 (Homo sapiens, UniProt P21964) (P21964 whole entry): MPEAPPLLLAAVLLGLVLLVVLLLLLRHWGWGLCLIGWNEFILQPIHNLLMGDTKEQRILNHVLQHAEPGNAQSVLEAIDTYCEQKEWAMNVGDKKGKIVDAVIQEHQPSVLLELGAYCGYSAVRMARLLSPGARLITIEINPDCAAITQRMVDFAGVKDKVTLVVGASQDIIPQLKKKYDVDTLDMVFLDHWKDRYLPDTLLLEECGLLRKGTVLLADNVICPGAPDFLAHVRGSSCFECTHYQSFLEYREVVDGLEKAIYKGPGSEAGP
# [13] = target: proteins of HEK293T cells transiently overexpressing caspase-6 (Homo sapiens, UniProt P18124); conditions: Probe; protein RPL7 P18124
# Sequence of proteins of HEK293T cells transiently overexpressing caspase-6 (Homo sapiens, UniProt Q96F25) (Q96F25 whole entry): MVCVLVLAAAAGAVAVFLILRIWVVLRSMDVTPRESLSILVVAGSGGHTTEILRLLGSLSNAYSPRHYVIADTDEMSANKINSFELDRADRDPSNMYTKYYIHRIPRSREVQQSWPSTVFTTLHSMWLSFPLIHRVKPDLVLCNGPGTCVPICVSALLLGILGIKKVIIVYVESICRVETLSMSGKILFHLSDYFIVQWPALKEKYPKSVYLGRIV
structure (smiles),measurement,setting,value
C#CCOc1ccc([C@@H]2C[C@@H](C(=O)Nc3ccc(OC(F)(F)F)cc3)CN(S(=O)(=O)C=C)C2)cc1 (relative stereo) [13-t],enrich.exp.med,[1],-1.074
same,enrich.exp.med,[2],-0.052
same,enrich.exp.med,"[3]; Probe, protein VIM P08670",-1.006
same,enrich.exp.med.lin,[3]; protein VIM (P08670),0.4978
same,enrich.exp.med.log2,[3]; protein VIM (P08670),-1.006
same,enrich.exp.med,[4],1.338
same,enrich.exp.med,"[5]; Probe, protein PC P11498",-2.146
same,enrich.exp.med.lin,[5]; protein PC (P11498),0.2259
same,enrich.exp.med.log2,[5]; protein PC (P11498),-2.146
same,enrich.exp.med,[6],0.2125
same,enrich.exp.med,[7],0.8215
same,enrich.exp.med,[8],0.5184
same,enrich.exp.med,[9],0.5675
same,enrich.exp.med,[10],0.5148
same,enrich.exp.med,"[11]; exp_ref Probe, analysis C6",0.5798
same,enrich.exp.med.lin,[11],1.495
same,enrich.exp.med.log2,[11],0.5798
same,enrich.exp.med,[12],-3.436
same,enrich.exp.med,[13],-0.45
